US11286268B1, “EIF4E-inhibiting compounds and methods” (EFFECTOR THERAPEUTICS, INC., priority 2019, dated 2022)
Like-named read-outs stand apart in the source and are kept apart here.

Molecular target: recombinant eIF4E (Homo sapiens (Human), UniProt P06730)
Experiment: Fluorescence polarization competition assay for eIF4E binding potency
Description: Compounds were screened for eIF4E binding potency using a fluorescence polarization competition assay. All binding reactions were performed in fluorescence polarization buffer (FPB) containing 20 mM Tris pH 7.5, 100 mM NaCl, 1 mM DTT, and 0.02% Tween-20. Final binding reactions contained 75 nM recombinant eIF4E (Beryllium, custom order), 20 nM EDA-m^7GDP-ATTO-550 (Jena Bioscience, NU-827-550) and varying concentrations of the inhibitory compound of interest. Final DMSO concentration in each reaction was 1%.
eIF4E protein was pre-incubated with EDA-m^7GDP-ATTO-550 in FPB at 2× concentrations for 5 minutes prior to the addition of compounds. Compounds (100×) were prepared using 3-fold serial dilutions in 100% DMSO, and subsequently diluted 1:50 in FPB to produce 2× stocks. 50 μl of 2× eIF4E/EDA-m^7GDP-ATTO-550 were transferred to the wells of a 96-well half-area black flat bottom polystyrene plate. 50 μl of 2× test compound were added, and binding reactions were allowed to equilibrate for 30 minutes at room temperature while protected from light. The fluorescent polarization signal was detected using a Victor 2 multi-label counter (Perkin Elmer) and the concentration necessary to achieve inhibition of eIF4E/EDA-m^7GDP-ATTO-550 binding by 50% (IC50) was calculated using data from an 8-point compound dilution series.
In Table 4A, IC50 values of less than 0.05 μM are labelled as “+++”, from 1 to 0.05 μM are labelled as “++”, and greater than 1 μM are labelled as “+”. ND=not determined.

[1] = fluorescence polarization competition, 75 nM recombinant eIF4E, 20 nM EDA-m7GDP-ATTO-550, IC50 class, read-out: elF4E FP
[2] = inhibition of eIF4E/EDA-m7GDP-ATTO-550 binding by 50%, Table 4B calculated values, read-out: IC50
[3] = inhibition of eIF4E/EDA-m7GDP-ATTO-550 binding, calculated IC50 values, Table 4B, read-out: IC50

Sequence of recombinant eIF4E (P06730 whole entry): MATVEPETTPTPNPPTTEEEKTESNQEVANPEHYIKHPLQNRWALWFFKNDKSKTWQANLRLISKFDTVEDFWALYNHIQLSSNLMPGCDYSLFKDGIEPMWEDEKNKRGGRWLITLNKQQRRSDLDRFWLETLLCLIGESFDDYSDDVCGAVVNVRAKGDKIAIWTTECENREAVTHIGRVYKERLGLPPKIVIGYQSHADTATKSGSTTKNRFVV

SMILES | IC50 [1] [nM] | IC50 [2] [nM] | IC50 [3] [nM]
Cc1cc(-c2cc(Cl)ccc2OCCn2c(C)nc3ccc(CCN(C)C)c(C#N)c3c2=O)c2scc(C(=O)O)c2n1 [compound 584] | < 50 | 23.5 | –
Cc1nc2cc(C(F)(F)F)c(CCN(C)C)cc2c(=O)n1CCOc1ccc(Cl)cc1-c1ccnc2c(C(=O)O)csc12 [compound 858] | < 50 | 7.28 | –
Cc1nc2cnccc2c(=O)n1CCOc1ccc(Cl)cc1-c1cccc(C(=O)O)c1 [compound 1] | 50 to 1000 | 281 | –
Cc1nc2cnc(C3CC3)c(C#N)c2c(=O)n1CCOc1ccc(Cl)cc1-n1cnc2c(C(=O)O)cccc21 [compound 756] | < 50 | 43.2 | –
Cc1cc(-c2c(C(F)(F)F)cc3nc(C)n(CCOc4ccc(Cl)cc4-c4cc(C)nc5c(C(=O)O)csc45)c(=O)c3c2C#N)cc(CF)n1 [compound 934] | < 50 | 13.6 | –
Cc1nc2cc(C(F)(F)F)c(CC3CN(CC(F)F)C3)c(C#N)c2c(=O)n1CCOc1ccc(Cl)cc1-c1ccnc2c(C(=O)O)csc12 [compound 376] | < 50 | 12.7 | –
Cc1cc(-c2cc(Cl)ccc2OCCn2c(C)nc3cc(C(F)(F)F)c(-c4cnc(C(F)F)cn4)nc3c2=O)c2scc(C(=O)O)c2n1 [compound 1020] | < 50 | 23.4 | –
Cc1nc2cc(C(F)(F)F)c(CCN3CC(F)(F)C3)c(C#N)c2c(=O)n1CCOc1ccc(Cl)cc1-c1ccnc2c(C(=O)O)csc12 [compound 1287] | – | – | 42.4
Cc1nc2cnc(N(C)C3CCN(C4CC(F)C4)CC3)c(C#N)c2c(=O)n1CC#Cc1ccc(Cl)cc1-c1ccnc2c(C(=O)O)csc12 (centres unmarked) [compound 1181] | < 50 | 13.7 | –
Cc1cc(-c2cc(Cl)ccc2OCCn2c(C)nc3cc(C(F)(F)F)c(OCC(F)F)c(C#N)c3c2=O)c2scc(C(=O)O)c2n1 [compound 1197] | < 50 | – | 5.93
Cc1cc(-c2cc(Cl)ccc2OCCn2c(C)nc3cnc(C#N)cc3c2=O)c2scc(C(=O)NS(C)(=O)=O)c2n1 [compound 598] | 50 to 1000 | 57.2 | –
Cc1cc(-c2cc(Cl)ccc2OCCn2c(C)nc3cnc(C4CCCC4(F)F)c(C#N)c3c2=O)c2scc(C(=O)O)c2n1 (centres unmarked) [compound 929] | < 50 | 22.5 | –
Cc1nc2cnc(C3CC3)c(C#N)c2c(=O)n1CC#Cc1ccc(Cl)cc1-c1ccnc2c(C(=O)O)csc12 [compound 384] | < 50 | 20.9 | –
Cc1nc2cnc(N3CCC(C)(N(C)CC(F)F)CC3)c(C#N)c2c(=O)n1CC#Cc1ccc(Cl)cc1-c1ccnc2c(C(=O)O)csc12 [compound 1414] | – | – | 15.3
Cc1nc2cnc(N(C)C3CCN(CC(C)(F)F)CC3)c(C#N)c2c(=O)n1CC#Cc1ccc(Cl)cc1-c1ccnc2c(C(=O)NS(=O)(=O)c3ccncc3)csc12 [compound 1143] | < 50 | 24.6 | –
Cc1nc2cc(C(F)(F)F)c(N3CCN(C)CC3)cc2c(=O)n1CCOc1ccc(Cl)cc1-c1ccnc2c(C(=O)O)csc12 [compound 1230] | < 50 | – | 10.3
Cc1cc(-c2cc(Cl)ccc2OCCn2c(C)nc3cnc(-c4ccc5ncsc5c4)c(C#N)c3c2=O)c2scc(C(=O)O)c2n1 [compound 993] | < 50 | 15.6 | –
CCN(c1ncc2nc(C)n(CC#Cc3ccc(Cl)cc3-c3ccnc4c(C(=O)NS(=O)(=O)C5CC(F)(F)C5)csc34)c(=O)c2c1C#N)C1CCN(C2COC2)CC1 [compound 1739] | – | – | 33.3
Cc1cc(-c2cc(Cl)ccc2OCCn2c(C)nc3cnc(C4CC4)c(C#N)c3c2=O)c2scc(C(=O)NS(C)(=O)=O)c2n1 [compound 385] | < 50 | 39.5 | –
Cc1nc2ccc(C(N)=O)c(C#N)c2c(=O)n1CCOc1ccc(Cl)cc1-c1ccnc2c(C(=O)O)csc12 [compound 316] | < 50 | 20.4 | –
Cc1nc2cnc(N3CCC4(CC3)CCN4CC(F)F)c(C#N)c2c(=O)n1CC#Cc1ccc(Cl)cc1-c1ccnc2c(C(=O)O)csc12 [compound 1490] | – | – | 29.1
